Experimental data published in PubChem BioAssay (NCI).
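GI50 is the concentration that inhibits growth by half. TGI marks complete inhibition of growth.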

Experiments:
Experiment in all cases: growth of human tumour cells (NCI), 384-well format
MDA-MB-435 melanoma = tested on: MDA-MB-435 melanoma
MDA-MB-231 breast = tested on: MDA-MB-231 breast
SNB-19 CNS = tested on: SNB-19 CNS
CCRF-CEM leukemia = tested on: CCRF-CEM leukemia
HOP-92 NSCLC = tested on: HOP-92 NSCLC
LOX IMVI melanoma = tested on: LOX IMVI melanoma
UO-31 renal = tested on: UO-31 renal
RXF 393 renal = tested on: RXF 393 renal
T-47D breast = tested on: T-47D breast
BT-549 breast = tested on: BT-549 breast
SW-620 colon = tested on: SW-620 colon
HS 578T breast = tested on: HS 578T breast
RPMI-8226 leukemia = tested on: RPMI-8226 leukemia
SR leukemia = tested on: SR leukemia
MDA-MB-468 breast = tested on: MDA-MB-468 breast
SN12C renal = tested on: SN12C renal
SF-295 CNS = tested on: SF-295 CNS
HCC-2998 colon = tested on: HCC-2998 colon
SF-268 CNS = tested on: SF-268 CNS
NCI-H23 lung = tested on: NCI-H23 lung
OVCAR-4 ovarian = tested on: OVCAR-4 ovarian
NCI-H226 lung = tested on: NCI-H226 lung
NCI-H322M lung = tested on: NCI-H322M lung
SK-MEL-28 melanoma = tested on: SK-MEL-28 melanoma
PC-3 prostate = tested on: PC-3 prostate
HL-60(TB) leukemia = tested on: HL-60(TB) leukemia
MOLT-4 leukemia = tested on: MOLT-4 leukemia
MALME-3M melanoma = tested on: MALME-3M melanoma
NCI-H522 lung = tested on: NCI-H522 lung
CAKI-1 renal = tested on: CAKI-1 renal
A549 NSCLC = tested on: A549 NSCLC
COLO 205 colon = tested on: COLO 205 colon
K-562 leukemia = tested on: K-562 leukemia
UACC-62 melanoma = tested on: UACC-62 melanoma
EKVX NSCLC = tested on: EKVX NSCLC
SK-OV-3 ovarian = tested on: SK-OV-3 ovarian
SNB-75 CNS = tested on: SNB-75 CNS
786-0 renal = tested on: 786-0 renal
HCT-15 colon = tested on: HCT-15 colon
UACC-257 melanoma = tested on: UACC-257 melanoma
OVCAR-3 ovarian = tested on: OVCAR-3 ovarian
SK-MEL-5 melanoma = tested on: SK-MEL-5 melanoma
NCI-H460 NSCLC = tested on: NCI-H460 NSCLC
U251 glioblastoma = tested on: U251 glioblastoma
IGROV1 ovarian = tested on: IGROV1 ovarian
HT29 colon = tested on: HT29 colon
HOP-62 NSCLC = tested on: HOP-62 NSCLC
KM12 colon = tested on: KM12 colon
SF-539 CNS = tested on: SF-539 CNS
M14 melanoma = tested on: M14 melanoma
OVCAR-5 ovarian = tested on: OVCAR-5 ovarian
NCI/ADR-RES ovarian = tested on: NCI/ADR-RES ovarian

`CN1C/C=C/CCOc2cccc(c2)-c2ccnc(n2)Nc2cccc(c2)C1` showed a GI50 (MDA-MB-435 melanoma) of 29.2 nM, a TGI (MDA-MB-435 melanoma) of 88.9 nM and a GI50 (MDA-MB-231 breast) of 51.5 nM. For the same compound, the TGI (MDA-MB-231 breast) was 296 nM, the GI50 (SNB-19 CNS) was 41.1 nM and the TGI (SNB-19 CNS) was 1600 nM. The GI50 (CCRF-CEM leukemia) was 18.7 nM, the TGI (CCRF-CEM leukemia) was 35.5 nM and the GI50 (HOP-92 NSCLC) was 44.3 nM. For the same compound, the TGI (HOP-92 NSCLC) was 3560 nM, the GI50 (LOX IMVI melanoma) was 18.5 nM and the TGI (LOX IMVI melanoma) was 35.7 nM. It also gave a GI50 (UO-31 renal) of 20.6 nM, a TGI (UO-31 renal) of 40.7 nM and a GI50 (RXF 393 renal) of 19.2 nM. For the same compound, the TGI (RXF 393 renal) was 35.4 nM, the GI50 (T-47D breast) was 41.6 nM and the TGI (T-47D breast) was 1200 nM. For the same compound, the GI50 (BT-549 breast) was 23.5 nM, the TGI (BT-549 breast) was 50.2 nM and the GI50 (SW-620 colon) was 38.1 nM. It also gave a TGI (SW-620 colon) of 279 nM, a GI50 (HS 578T breast) of 18.7 nM and a TGI (HS 578T breast) of 43.3 nM. The GI50 (RPMI-8226 leukemia) was 23.7 nM, the TGI (RPMI-8226 leukemia) was 50.6 nM and the TGI (SR leukemia) was 14.9 nM. The GI50 (MDA-MB-468 breast) was 42.7 nM, the TGI (MDA-MB-468 breast) was 147 nM and the GI50 (SN12C renal) was 27.6 nM. For the same compound, the TGI (SN12C renal) was 90.3 nM, the GI50 (SF-295 CNS) was 34 nM and the TGI (SF-295 CNS) was 504 nM. For the same compound, the GI50 (HCC-2998 colon) was 32.5 nM, the TGI (HCC-2998 colon) was 219 nM and the GI50 (SF-268 CNS) was 22.9 nM. It also gave a TGI (SF-268 CNS) of 67.8 nM, a TGI (NCI-H23 lung) of 106 nM and a TGI (OVCAR-4 ovarian) of 602 nM. For the same compound, the GI50 (NCI-H226 lung) was 26.9 nM, the TGI (NCI-H226 lung) was 86 nM and the GI50 (NCI-H322M lung) was 30.1 nM. It also gave a TGI (NCI-H322M lung) of 90.6 nM, a GI50 (SK-MEL-28 melanoma) of 25.7 nM and a TGI (SK-MEL-28 melanoma) of 86.5 nM. For the same compound, the GI50 (PC-3 prostate) was 31.1 nM, the TGI (PC-3 prostate) was 94.9 nM and the GI50 (HL-60(TB) leukemia) was 16 nM. The TGI (HL-60(TB) leukemia) was 29.8 nM, the GI50 (MOLT-4 leukemia) was 19.8 nM and the TGI (MOLT-4 leukemia) was 37.2 nM. It also gave a GI50 (MALME-3M melanoma) of 33.5 nM, a TGI (MALME-3M melanoma) of 88.3 nM and a GI50 (NCI-H522 lung) of 59.8 nM. For the same compound, the TGI (NCI-H522 lung) was 227 nM, the GI50 (CAKI-1 renal) was 30.1 nM and the TGI (CAKI-1 renal) was 1140 nM. The GI50 (A549 NSCLC) was 35.2 nM, the TGI (A549 NSCLC) was 1090 nM and the GI50 (COLO 205 colon) was 24.7 nM. For the same compound, the TGI (COLO 205 colon) was 57.8 nM, the GI50 (K-562 leukemia) was 71 nM and the TGI (K-562 leukemia) was 307 nM. It also gave a GI50 (UACC-62 melanoma) of 18.6 nM, a TGI (UACC-62 melanoma) of 45.4 nM and a GI50 (EKVX NSCLC) of 50.2 nM. The TGI (EKVX NSCLC) was 192 nM, the GI50 (SK-OV-3 ovarian) was 65.3 nM and the TGI (SK-OV-3 ovarian) was 1140 nM. The GI50 (SNB-75 CNS) was 26 nM, the TGI (SNB-75 CNS) was 65.9 nM and the GI50 ([…]-0 renal) was 37 nM. The TGI (786-0 renal) was 224 nM, the GI50 (HCT-15 colon) was 30.1 nM and the TGI (HCT-15 colon) was 119 nM. The GI50 (UACC-257 melanoma) was 58.2 nM, the TGI (UACC-257 melanoma) was 208 nM and the GI50 (OVCAR-3 ovarian) was 22.9 nM. It also gave a TGI (OVCAR-3 ovarian) of 60.3 nM, a GI50 (SK-MEL-5 melanoma) of 22 nM and a TGI (SK-MEL-5 melanoma) of 53.6 nM. The GI50 (NCI-H460 NSCLC) was 19.9 nM, the TGI (NCI-H460 NSCLC) was 41.9 nM and the GI50 (U251 glioblastoma) was 34 nM. It also gave a TGI (U251 glioblastoma) of 520 nM, a TGI (IGROV1 ovarian) of 128 nM and a GI50 (HT29 colon) of 36.5 nM. For the same compound, the TGI (HT29 colon) was 203 nM, the GI50 (HOP-62 NSCLC) was 21.6 nM and the TGI (HOP-62 NSCLC) was 49.4 nM. The GI50 (KM12 colon) was 26 nM, the TGI (KM12 colon) was 74.7 nM and the GI50 (SF-539 CNS) was 25.2 nM. For the same compound, the TGI (SF-539 CNS) was 62.6 nM, the GI50 (M14 melanoma) was 37.7 nM and the TGI (M14 melanoma) was 118 nM. The GI50 (OVCAR-5 ovarian) was 29.4 nM, the TGI (OVCAR-5 ovarian) was 7380 nM and the GI50 (NCI/ADR-RES ovarian) was 34.2 nM. The TGI (NCI/ADR-RES ovarian) was 124 nM.
